# Test system: Fibroblasts
# Assay: Production amount of type I collagen by fibroblasts
# Assay type: cell-based
# Settings: cultured for two days in DMEM without growth factors; amount without sarcosine set as 100 (FIG. 4)
# Method: The production of collagen was measured in the following method. Fibroblasts were plated on 24 wells, and were allowed to stand while culturing until the cells fully adhered. Then, the culture liquid (DMEM supplemented with growth factors) was replaced with a medium (DMEM without growth factors) to which the drug (sarcosine) was added to the desired concentration, and cultured for two days. The culture supernatant was removed, and the production amount of type I collagen was determined using the TAKARA's Procollagen type I-Cppeptide EIA KIT. Cell counts were determined by measuring the amount of DNA using Hoechst and then converting it to a cell count. Finally the production amount of collagen was compared as the production amount of collagen per unit cell.
smiles,measurement,value
CNCC(=O)O [sarcosine],production amount of collagen per unit cell,increases with sarcosine addition in dose dependent manner

# Source: patent publication US20100168468A1, “WRINKLE-PREVENTING AND IMPROVING COMPOSITION” (Kyowa Hakko Kirin Co., Ltd., priority 2005, published 2010)
